Results published in patent US20160090351A1, “INHIBITORS OF DEUBIQUITINATING PROTEASES” (BRANDEIS UNIVERSITY, priority 2013, published 2016).

Experiments:
20S proteasome = 20S proteasome (Homo sapiens, UniProt P28074); assay: proteasome activity (purified 20S proteasome; GFP-Ub (G76V) in Cos-1 cells); assay type: biochemical; settings: 20S proteasome 30 minutes, Suc-Leu-Tyr-AMC 100 μM; Cos-1 GFP-Ub (G76V) 8 hours
Protocol: A. Purified 20S proteasome was treated with compound for 30 minutes prior to addition of substrate (Suc-Leu-Tyr-AMC, 100 μM). B. Cos-1 cells expressing with GFP-Ub (G76V) were treated with compound for 8 hours, then the level of GFP was measured by flow cytometry.

BaF3.p210 = assay: cytotoxicity in a panel of cell lines, Alamar Blue; assay type: cell-based, mouse
Protocol: Cytoxicity was tested against a panel of cell lines: (i) B16/F10, a metastatic mouse melanoma cell line that suppresses the tumor suppressor Gas1 (Growth arrest-specific 1); (ii) BaF3, an immortalized mouse pro-B cell line that depends on IL-3 for growth and proliferation (L-3 stimulates expression of the pro-survival Bc1-2 family member, Mc1-1; and USP9x is the deubiquitinase responsible for stabilizing Mc1-1); (iii) Cos-1, monkey kidney fibroblast immortalized with SV40 T antigen; (iv) BaF3.p210, BaF3 cells expressing Bcr-Abl kinase (p210), the mutant protein that causes chronic myelogenous leukemia, and the target of Gleevec (The expression of Bcr-Abl cause proliferation to become IL-3-independent. These cells have been widely used in the development of Bcr-Abl kinase inhibitors. USP9x stabilizes Bcr-Abl by removing Ub and blocking degradation via autophagy.); (v) HEK293T, human embryonic kidney cell line expressing SV40 T antigen; (vi) HeLa, human cervical adenocarcinoma cell line; (vii) MCF7, human breast cancer cell line; and (viii) NIH3T3, mouse fibroblast cell line. Of these, the only cells dependent on USP9x for survival are BaF3.p210 and BaF3. A. Cells were treated with a single dose of TU50 for 48 h and viable cells were measured using Alamar Blue®. EC50=8±2 μM for BaF3.p210. B. As above, except that cells were treated with TU50 for 72 h.

Bcr-Abl kinase = assay: Bcr-Abl levels in K562 cells by immunoblotting; assay type: cell-based, human
Protocol: (§1) K562 cells are from a myelogenous leukemia line that expresses Bcr-Abl kinase. A. K562 cells were treated with TU50 for 24 hours after which time the cells were treated with annexin V-FITC and propidium iodide. Cells were then analyzed by flow cytometry. Cells showing only annexin V-FITC were considered apoptotic whereas cells showing both annexin V-FITC and propidium iodide were considered necrotic. N=2. All points show a significant difference to the vehicle (DMSO) with p<0.05. […] All points show a significant difference to vehicle (DMSO) with p<0.02. C. Same as A, but the incubation period was 8 hours. N>2. All points show a significant difference to DMSO with p<0.02. D, K562 cells were treated with TU50 for 4 hours. Samples were analyzed by SDS-PAGE and immunoblotting with anti-Bcr-Abl antibody. E. Quantitation of blot in D. The signal for tubulin was used to normalize the Bcr-Abl signal. N=3.
(§2) FIG. 34 depicts data showing that diphenylcarbonates cause the accumulation of HMW-Ub and reduce the levels of Bcr-Abl in K562 cells. A. K562 cells were treated with diphenyl carbonates (50 μM) for 2 h and then assayed for the accumulation of K48-linked Ub. B. As in A, but Bcr-Abl was measured by immunoblotting with anti-Abl antibodies. C. K562 cells were treated with C17 (50 μM) in the presence and absence of bortezomib (6 μM) for 4 hours and Bcr-Abl was measured by immunblotting with anti-Abl antibodies. D. Quantitation of blot in C. Significance: DMSO relative to C17 and bortezomib p=0.002; DMSO relative to C17, p=0.03. E. K562 cells were treated with C15 for 4 hours then analyzed for SMAD4 monoubiquitination by western blot. F. Quantitation of blots in A. (N=3). See also FIG. 40.
(§3) FIG. 40 depicts data showing that diphenyl carbonates induce the degradation of Bcr-Abl kinase. A. K562 cells were treated with C17 for 24 h (1 dose) then analyzed for Bcr-Abl expression by western blot with anti-Abl antibody. B. Quantitation of blots in A normalized to actin. C. K562 cells were treated with C17 for 24 h then the amount of cells in G1 and apoptosis were recorded (N=3). D. K562 were treated with C15 for 4 h then analyzed for Bcr-Abl expression using western blot. E. Quantitation of Bcr-Abl from D normalized to tubulin (N=4). F. Same K562 lysates were separately analyzed for K63-linked ubiquitin. G. Quantitation of blots in F (N=4). Differences between all bars is significant p<0.01). H. K562 cells were treated with C15 for 24 h after which time cells were fixed in ethanol, treated with propodium iodide/RNAse then analyzed by FACS. Viability was calculated using forward and side scatter. I. Same experiment as H but red fluorescence was measured to determine DNA content
(§4) Transfected cells were harvested 1.5 days post transfection. […] Typically clarified lysate was analyzed.

K562 cells = assay: apoptosis, cell cycle and viability of K562 cells by flow cytometry; assay type: cell-based, human; settings: annexin V-FITC / propidium iodide, 24 hours (TU50 also 8 hours)
Protocol: as §1, §3

USP9x = target: T1, USP9x (Homo sapiens, UniProt Q93008); assay: HA-Ub-VS labeling in K562 cell lysates; assay type: biochemical
T1 construct: endogenous in cells; host or cells: K562 cell lysate
T1 sequence (Q93008 whole entry): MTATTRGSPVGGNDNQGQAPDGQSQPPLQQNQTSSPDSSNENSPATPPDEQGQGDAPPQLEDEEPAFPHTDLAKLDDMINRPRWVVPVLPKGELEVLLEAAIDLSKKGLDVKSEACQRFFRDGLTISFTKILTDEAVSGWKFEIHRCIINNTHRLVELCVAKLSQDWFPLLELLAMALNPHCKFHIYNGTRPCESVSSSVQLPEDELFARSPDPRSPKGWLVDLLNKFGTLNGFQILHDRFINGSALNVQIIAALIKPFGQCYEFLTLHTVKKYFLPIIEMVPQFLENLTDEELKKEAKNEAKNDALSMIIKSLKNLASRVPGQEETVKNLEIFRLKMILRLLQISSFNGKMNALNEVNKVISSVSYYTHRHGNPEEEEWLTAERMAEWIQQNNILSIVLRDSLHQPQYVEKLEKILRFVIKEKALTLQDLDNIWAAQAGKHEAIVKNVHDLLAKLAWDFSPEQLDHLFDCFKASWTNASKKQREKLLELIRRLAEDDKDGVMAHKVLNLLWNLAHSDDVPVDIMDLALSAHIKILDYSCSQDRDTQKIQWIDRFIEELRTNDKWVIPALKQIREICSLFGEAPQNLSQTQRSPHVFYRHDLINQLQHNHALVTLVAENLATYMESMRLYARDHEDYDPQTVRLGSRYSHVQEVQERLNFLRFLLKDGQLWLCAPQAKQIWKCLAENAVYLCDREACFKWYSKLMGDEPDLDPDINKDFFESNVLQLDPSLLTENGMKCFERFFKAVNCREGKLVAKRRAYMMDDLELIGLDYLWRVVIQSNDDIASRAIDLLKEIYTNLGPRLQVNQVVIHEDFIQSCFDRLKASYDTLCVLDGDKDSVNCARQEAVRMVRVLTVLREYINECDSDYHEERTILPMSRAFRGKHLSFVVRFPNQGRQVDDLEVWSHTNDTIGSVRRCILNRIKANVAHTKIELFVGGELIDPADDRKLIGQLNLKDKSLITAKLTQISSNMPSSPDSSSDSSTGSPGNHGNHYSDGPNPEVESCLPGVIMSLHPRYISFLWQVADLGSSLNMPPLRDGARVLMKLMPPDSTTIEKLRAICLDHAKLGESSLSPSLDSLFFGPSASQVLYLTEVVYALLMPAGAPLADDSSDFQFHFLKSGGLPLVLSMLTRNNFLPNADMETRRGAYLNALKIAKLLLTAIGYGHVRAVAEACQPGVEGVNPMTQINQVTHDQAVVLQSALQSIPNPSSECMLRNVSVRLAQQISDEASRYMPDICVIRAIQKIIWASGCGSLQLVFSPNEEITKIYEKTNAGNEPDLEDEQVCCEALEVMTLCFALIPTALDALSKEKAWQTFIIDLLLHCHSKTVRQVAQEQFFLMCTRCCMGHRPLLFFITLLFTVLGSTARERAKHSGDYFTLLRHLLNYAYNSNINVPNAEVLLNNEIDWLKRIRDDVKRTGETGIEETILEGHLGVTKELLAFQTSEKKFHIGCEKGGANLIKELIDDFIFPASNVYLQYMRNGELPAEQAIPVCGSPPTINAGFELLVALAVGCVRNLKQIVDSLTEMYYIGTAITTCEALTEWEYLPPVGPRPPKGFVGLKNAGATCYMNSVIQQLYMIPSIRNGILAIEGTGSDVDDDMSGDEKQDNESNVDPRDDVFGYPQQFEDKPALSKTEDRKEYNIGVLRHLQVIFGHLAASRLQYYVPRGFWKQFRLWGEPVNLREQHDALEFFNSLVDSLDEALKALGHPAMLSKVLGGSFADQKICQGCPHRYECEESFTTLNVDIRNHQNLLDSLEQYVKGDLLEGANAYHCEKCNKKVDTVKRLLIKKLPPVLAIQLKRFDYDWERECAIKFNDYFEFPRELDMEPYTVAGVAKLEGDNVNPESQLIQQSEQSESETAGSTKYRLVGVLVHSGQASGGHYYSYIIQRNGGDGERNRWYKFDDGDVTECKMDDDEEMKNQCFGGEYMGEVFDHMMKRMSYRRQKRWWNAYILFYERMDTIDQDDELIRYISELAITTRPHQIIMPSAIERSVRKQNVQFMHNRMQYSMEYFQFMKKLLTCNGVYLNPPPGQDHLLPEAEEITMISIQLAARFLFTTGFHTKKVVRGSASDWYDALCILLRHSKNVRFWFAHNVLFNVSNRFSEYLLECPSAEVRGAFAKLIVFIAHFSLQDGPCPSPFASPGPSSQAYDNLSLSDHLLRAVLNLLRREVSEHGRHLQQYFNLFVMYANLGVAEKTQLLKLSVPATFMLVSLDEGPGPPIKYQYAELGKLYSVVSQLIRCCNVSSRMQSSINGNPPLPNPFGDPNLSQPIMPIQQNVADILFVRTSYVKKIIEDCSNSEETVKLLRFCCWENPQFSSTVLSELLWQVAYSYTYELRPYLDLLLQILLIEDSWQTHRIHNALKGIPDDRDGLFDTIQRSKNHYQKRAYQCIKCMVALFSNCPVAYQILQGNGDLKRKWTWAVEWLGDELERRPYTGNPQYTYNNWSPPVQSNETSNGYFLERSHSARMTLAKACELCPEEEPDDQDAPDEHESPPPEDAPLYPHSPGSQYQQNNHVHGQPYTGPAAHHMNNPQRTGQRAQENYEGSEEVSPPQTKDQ
Protocol: HA-Ub-VS is commonly used to label DUBs in cell lysates. […] A. and B. K562 cell lysates were treated with compound for 40 minutes prior to activity labeling with HA-Ub-VS (1.5 μM) for 20 minutes. Samples were analyzed by SDS-PAGE and immunoblotting with anti-HA antibody. C. […] Values were derived by fitting to the in Prism.

[1] = tested on: caspases or the proteasome; assay: effect on caspases or proteasome (PARP cleavage), Example 5; assay type: cell-based; settings: 100 μM
Protocol: (§5) Cells treated with 4 (100 μM; as defined in FIG. 3) show PARP cleavage that indicates caspases are active. The fluorescence of G76V ubiquitin-GFP fusion protein increases in the presence of inhibitor 4 (as defined in FIG. 3), as expected if degradation […] due to inhibition of DUBs. In contrast, GFP fluorescence […] when the proteasome is inhibited by bortezomib.

SMAD4 = SMAD4 monoubiquitination in K562 cells by western blot; assay type: cell-based, human
Protocol: as §2, §4

USP7 = assay: MDM2 and P53 levels in treated cells, Example 6; assay type: cell-based; settings: compound numbered as in FIG. 3
Protocol: P53 is a tumor suppressor that is rapidly degraded in tumor cells due to ubiquitination by MDM2. In turn, MDM2 is degraded by the ubiquitin/proteasome system. USP7 removes ubiquitin from MDM2, stabilizing the protein, and thereby causing degradation of P53. […] This behavior is observed when cells are treated with 4 (as defined in FIG. 3). Doxorubicin (Doxo) serves as a positive control.

MCF7 cells = assay: accumulation of K48- and K63-linked ubiquitin in MCF7 cells; assay type: cell-based, human; settings: 100 μM
Protocol: FIG. 41 depicts data showing that compound C17 and C15 increase P53 expression and upregulate K48-linked Ub in MCF7 cells. A. MCF7 cells were treated with C17 (50 μM) for 48 h, dosed every 24 h and samples were analyzed for K48-linked ubiquitin. Note that samples were not sonicated, so only soluble HMW-Ub is recovered. B. A similar experiment to A but samples were analyzed for p53. C. Quantitation of blots in B. Each point has a P<0.001 for an increase relative to the DMSO vehicle (N=2). D. MCF7 cells were treated with C15 (100 μM) dosing every 2 h. The accumulation of K48-linked ubiquitin was assayed by SDS-PAGE and by western blot. E. MCF7 cells were treated as in D but the accumulation of K63-linked ubiquitin was assayed. F. Cos-1 cells were treated with C15 for 2 hours then analyzed for K48-linked ubiquitin by western blot. G. Similar experiment to F, but K63-linked ubiquitin was assayed. H. Quantitation of blots in G (N=3).
Similar results were obtained in Cos-1, CHO and HEK293T.
as §4

[2] = tested on: G76V ubiquitin-GFP fusion protein; assay: G76V ubiquitin-GFP fusion protein fluorescence, Example 5; assay type: cell-based; settings: Example 5, FIG. 9 bottom panel
Protocol: as §5

[3] = tested on: USP9x, USP19, USP7/8, USP28/15; assay: HA-Ub-VS activity profiling in cell lysates, USPs; assay type: biochemical, human; settings: HEK293T or Cos-1 lysate, compounds numbered as in FIG. 3
Protocol: (§6) HA-ubiquitin vinylsulfone (HA-Ub-VS) irreversibly labels DUBs by modifying the catalytic cysteine residue Inhibition of the DUB prevents HA-Ub-VS labeling and the band is. […] The interaction with UCHL1/3 is reversible.
(§7) Lysate labeling assay on untransfected cells (1.5 mg/mL) was run with the stated concentration of inhibitor (or 1% DMSO control) for between 19-60 mins. After this time HA-Ub-VS (1.5-0.7 μM) was added and incubated for 19 mins. After this time reaction mixture (9 μL) was removed and quenched in 2× (final concentration) reducing loading buffer. For recovery experiments, a lysate of 6 mg/mL was treated with saturating compound C14 (250 μM) and incubated for 40 mins. Afterward, the lysate was diluted to 0.6 mg/mL (final concentration of inhibitor 25 μM) in lysis buffer (final volume 100 μL), then HA-Ub-VS was added. Aliquots (15 μL) were removed at the stated time (5-119 mins) and immediately quenched in 2× (final concentration) reducing loading buffer. For all HA-Ub-VS experiments samples in loading buffer were heated only to 37° C. prior to loading on a gel. This assay is highly susceptible to concentration of lysate and HA-Ub-VS. Cell experiments were carried out as above with some modifications. For Cos-1 and MCF-7 cells, after trypsinization, media with compound was added to give a final concentration of compound equal to that used in the assay. Cell pellets were lysed on an ice/salt bath with a temperature of −5° C. and lysate was centrifuged for only 5 mins.
(§8) HA-Ub-VS is an irreversible inhibitor of DUBs that is widely used in activity profiling. If the DUB inhibitors react to form a thiocarbonylated enzyme as proposed (FIG. 29B), then HA-Ub-VS labeling will be blocked. Treatment of HEK 293T lysates with HA-Ub-VS produced the characteristic pattern of protein bands at 250, 150-100, 45, 38 and 36 kDa, generally ascribed to USP9x (292 kDa), USP19 (146 kDa), USP7/8 (128 and 127 kDa, respectively), USP28/15 (122 and 112 kDa, respectively), UCH-L5 (38 kDa), UCH-L3 (26 kDa) and UCH-L1 (25 kDa) as depicted in FIG. 31.
(§9) The effect of diphenylcarbonates on HA-Ub-VS labeling was assessed to investigate the selectivity of DUB inhibition. Lysates were preincubated with diphenyl carbonates (75 μM), then treated with HA-Ub-VS (FIG. 31A). […] These C17 and C22-sensitive DUBs are most likely USP9x, USP19, USP7/8 and UCHL5, based on molecular weight (FIGS. 31B and 38). The identity of USP7 was confirmed by immunoblotting (FIG. 38F). […] Similar behavior was observed on Cos-1 cell lysates (FIG. 38B).

UCH-L5, UCH-L3, UCH-L1 = assay: HA-Ub-VS activity profiling in cell lysates, UCH-Ls; assay type: biochemical, human; settings: HEK293T or Cos-1 lysate, compounds numbered as in FIG. 3
Protocol: as §6, §7, §8, §9

| SMILES | effect on proteasome activity (20S proteasome) | EC50 (BaF3.p210; BaF3.p210, single dose, 48 h, Alamar Blue, read-out: EC50, viable cells) [µM] | selectivity of proliferation inhibition over cell panel (BaF3.p210; panel of 8 cell lines, 48 h and 72 h) | Bcr-Abl kinase level (Bcr-Abl kinase; TU50 4 hours) | apoptosis of K562 cells (K562 cells) | selectivity of DUB inhibition (USP9x; HA-Ub-VS labeling) | EC50 (USP9x; compound 40 minutes, then HA-Ub-VS (1.5 μM) 20 minutes) [µM] | inhibition of caspases or the proteasome [1] | SMAD4 monoubiquitination (SMAD4) | MDM2 and P53 levels (USP7) | BCR/Abl level (Bcr-Abl kinase; compound numbered as in FIG. 3) | K48- and K63-linked ubiquitin (MCF7 cells) | GFP fluorescence of G76V ubiquitin-GFP [2] | HA-Ub-VS binding to USP9x and USP7 [3] | inhibition of UCHL1/3 (UCH-L5, UCH-L3, UCH-L1) |
| --- | --- | --- | --- | --- | --- | --- | --- | --- | --- | --- | --- | --- | --- | --- | --- |
| CC(C)(C)OC(=O)NCc1cccc(N=C=S)c1 [TU50] | no effect on proteasome activity | 8 ± 2 | selectively inhibits proliferation of cells that depend on USP9x | cause degradation of Bcr-Abl kinase | induce apoptosis of K562 cells | selectively inhibits USP9x | 3 ± 3 | – | – | – | – | – | – | – | – |
| Cl.NCc1ccc(OC(=O)Oc2ccc(Br)cc2)cc1 [compound 4] | – | – | – | – | – | – | – | does not inhibit caspases or the proteasome | increase in SMAD4 monoubiquitination | degradation of MDM2 and the stabilization of P53 | decrease in BCR/Abl | elevated K48- and K63-linked ubiquitin | increases | prevents binding of HA-Ub-VS to USP9x (290 kDa) and USP7 (150 kDa) selectively | At higher concentrations UCHL1/3 (37 kDa) are inhibited |
